Experiment: Thermal stability of Capecitabine on heating
Type: physicochemical
Conditions: heating at 90° C. during 10 hours at neutral pH
Protocol: The one step process for the preparation of Capecitabine disclosed in WO 2011/104540 suffers from important loses of the final product. Capecitabine suffers from thermal instability at high temperatures, and after heating the product at 90° C. during 10 hours at neutral pH, up to 40% of the product is lost. On the contrary, the enzymatic process of the invention runs at milder conditions, using water as solvent and furnishing yields higher than 70%.

product lost after heating (thermal instability): up to 40%
SMILES: CCCCCOC(=O)Nc1nc(=O)n([C@@H]2O[C@H](C)[C@@H](O)[C@H]2O)cc1F [Capecitabine, N^4-pentyloxycarbonyl-5′-deoxy-5-fluorocytidine]

— patent US20160312261A1, “ENZYMATIC PRODUCTION OF CYTOSINIC NUCLEOSIDE ANALOGUES” (PLASMIA BIOTECH, S.L., priority 2015, published 2016)
